In this experiment the test system is rumen fluid. Briefly: In vitro rumen technique, propionic acid production. The conditions noted are these: 16 h, pH 6.8, read-out: increase of propionic acid over the control.

`CC[C@@H](C(=O)[C@@H](C)[C@@H](O)[C@H](C)[C@@H]1O[C@@H]([C@@H](CC)C(=O)O)CC[C@@H]1C)[C@H]1O[C@]2(C=C[C@@H](O)[C@]3(CC[C@@](C)([C@H]4CC[C@](O)(CC)[C@H](C)O4)O3)O2)[C@H](C)C[C@@H]1C` [salinomycin]: the activation at 10 µg/mL is approximately 61%.

(Values after patent publication US4920215A, “Antibiotic produced by fermentation” (Pfizer Inc., priority 1987, dated 1990).)
